Experimental data as given in ChEMBL document CHEMBL3784975 (Bioorg Med Chem Lett, 2016).

Legend:
[1] = test system: HeLa; test: Cytotoxicity against human HeLa cells after 24 hrs by [3H]-thymidine incorporation assay; format: functional, cell-based
[2] = Cytotoxicity against human CLL cells after 24 hrs by annexin-V/PI staining based flow cytometry; format: functional, cell-based
[3] = Half life of compound at pH 5; format: physicochemical
[4] = test system: A-431; test: Cytotoxicity against human A431 cells after 48 hrs by crystal violet staining based assay; format: functional, cell-based; settings: A-431, 48 h
[5] = Cytotoxicity against human […] cells after 48 hrs by crystal violet staining based assay; format: functional, cell-based
[6] = Cytotoxicity against human SJSA1 cells after 48 hrs by crystal violet staining based assay; format: functional, cell-based; settings: SJSA-1, 48 h
[7] = Cytotoxicity against human A3 cells after 48 hrs by crystal violet staining based assay; format: functional, cell-based; settings: A3, 48 h
[8] = Cytotoxicity against human IGROV cells after 48 hrs by crystal violet staining based assay; format: functional, cell-based
[9] = Plasma protein binding in human by liquid chromatography-mass spectrometric analysis; format: ADME, cell-free
[10] = Cytotoxicity against human CLL cells after 24 hrs by annexin-V/PI staining based flow cytometry in presence of fetal bovine serum; format: functional, cell-based
[11] = Cytotoxicity against human T cells assessed as cell viability after 24 hrs by annexin V/propidium iodide staining based flow cytometric analysis
[12] = Cytotoxicity against human B cells assessed as cell viability after 24 hrs by annexin V/propidium iodide staining based flow cytometric analysis
[13] = Cytotoxicity against human CLL cells after 24 hrs by annexin-V/PI staining based flow cytometry in presence of human plasma protein; format: functional, cell-based
[14] = test system: Plasma; test: Metabolic stability in human plasma assessed as drug recovery; format: ADME, cell-free
[15] = Half life of compound in water at 25 deg C; format: physicochemical

Structure (SMILES) | IC50 [1] | IC50 [2] | also measured
C#CCCCO[C@@]12C[C@@H]3[C@@H](NC(=O)c4ccc(Br)n43)[C@@H]1NC(=O)N2C | > 20000 nM | > 10000 nM | 
CN1C(=O)N[C@H]2[C@@H]3NC(=O)c4ccc(Br)n4[C@@H]3C[C@]21N | 17000 nM | > 30000 nM | t1/2 [3]: 170 h
CN1C(=O)N[C@H]2[C@@H]3NC(=O)c4cc(Br)c(Br)n4[C@@H]3C[C@]21O | 7850 nM | > 30000 nM | IC50 [4]: > 1000 nM; IC50 [5]: > 1000 nM; IC50 [6]: > 1000 nM; IC50 [7]: > 1000 nM; IC50 [8]: > 1000 nM
CC(=O)c1cc2n(c1Br)[C@@H]1C[C@]3(O)[C@@H](NC(=O)N3C)[C@@H]1NC2=O | > 20000 nM | > 10000 nM | 
CN1C(=O)N[C@H]2[C@@H]3NC(=O)c4cc(-c5ccccc5)c(Br)n4[C@@H]3C[C@]21O | > 20000 nM | > 10000 nM | 
CN1C(=O)N[C@H]2[C@@H]3NC(=O)c4cc(C#Cc5ccccc5)c(Br)n4[C@@H]3C[C@]21O | > 20000 nM | > 10000 nM | 
CN1C(=O)N[C@H]2[C@@H]3NC(=O)c4cc(I)c(Br)n4[C@@H]3C[C@]21O | > 20000 nM |  | 
CN1C(=O)N[C@H]2[C@@H]3NC(=O)c4cc(Cl)c(Br)n4[C@@H]3C[C@]21O |  | 2820 nM | IC50 [4]: 340 nM; PPB [9]: 46.5%; IC50 [10]: 2650 nM; IC50 [5]: 540 nM; IC50 [6]: 560 nM; IC50 [7]: 470 nM; Activity [11]: Toxic; Activity [12]: Toxic; IC50 [8]: 260 nM; IC50 [13]: 2820 nM; Drug recovery [14]: 102.1%
CN1C(=O)N[C@H]2[C@@H]3NC(=O)c4cc(-c5ccccc5)c(-c5ccccc5)n4[C@@H]3C[C@]21O | > 20000 nM | > 10000 nM | 
Cc1c(C)c2n(c1Br)[C@@H]1C[C@]3(O)[C@@H](NC(=O)N3C)[C@@H]1NC2=O | > 20000 nM |  | 
CN1C(=O)N[C@H]2[C@@H]3NC(=O)c4ccc(Br)n4[C@@H]3C[C@]21OCCCc1cn(CCCC(=O)NCc2ccccc2)nn1 | > 20000 nM | > 10000 nM | 
CN1C(=O)c2ccc(Br)n2[C@@H]2C[C@]3(O)[C@@H](NC(=O)N3C)[C@@H]21 (racemic) | > 20000 nM |  | 
Cc1cc2n(c1Br)[C@@H]1C[C@]3(O)[C@@H](NC(=O)N3C)[C@@H]1NC2=O | 4530 nM | 7120 nM | 
Cc1ccc2n1[C@@H]1C[C@]3(O)[C@@H](NC(=O)N3C)[C@@H]1NC2=O | > 20000 nM | 9770 nM | IC50 [4]: > 1000 nM; IC50 [5]: 280 nM; IC50 [6]: > 1000 nM; IC50 [7]: > 1000 nM; IC50 [8]: 310 nM
Cc1c(Br)c(Br)n2c1C(=O)N[C@@H]1[C@H]2C[C@]2(O)[C@H]1NC(=O)N2C | > 20000 nM |  | 
CN1C(=O)N[C@H]2[C@@H]3NC(=O)c4ccc(Br)n4[C@@H]3C[C@]21O [AGELASTATIN A] | 84 nM | 710 nM | IC50 [4]: 460 nM; IC50 [10]: 930 nM; IC50 [5]: 320 nM; IC50 [6]: 440 nM; IC50 [7]: 380 nM; Activity [11]: Toxic; Activity [12]: Toxic; IC50 [8]: 170 nM; IC50 [13]: 710 nM
CN1C(=O)N[C@H]2[C@@H]3NC(=O)c4c(Br)c(Br)c(Br)n4[C@@H]3C[C@]21O | > 20000 nM | > 10000 nM | 
Cc1ccn2c1C(=O)N[C@@H]1[C@H]2C[C@]2(O)[C@H]1NC(=O)N2C | > 20000 nM |  | 
CC(=O)CCO[C@@]12C[C@@H]3[C@@H](NC(=O)c4ccc(Br)n43)[C@@H]1NC(=O)N2C | 1720 nM | 5740 nM | half-life [15]: 16 h
